The source of these data is patent US10175256B2, “Compositions and methods utilizing lysophosphatidylcholine scaffolds” (National University Of Singapore, priority 2013, dated 2019).

The structures appear in SMILES notation. Several values for one entry are separate records, joined by “and”; a condition that tells them apart may be missing. Identical values can stand only once.

Experiment [1] concerns the target T1, mouse Mfsd2a (Mus musculus, UniProt Q9DA75).
T1 construct: expressed in transfected cells; host or cells: HEK293
T1 sequence (Q9DA75 1-534): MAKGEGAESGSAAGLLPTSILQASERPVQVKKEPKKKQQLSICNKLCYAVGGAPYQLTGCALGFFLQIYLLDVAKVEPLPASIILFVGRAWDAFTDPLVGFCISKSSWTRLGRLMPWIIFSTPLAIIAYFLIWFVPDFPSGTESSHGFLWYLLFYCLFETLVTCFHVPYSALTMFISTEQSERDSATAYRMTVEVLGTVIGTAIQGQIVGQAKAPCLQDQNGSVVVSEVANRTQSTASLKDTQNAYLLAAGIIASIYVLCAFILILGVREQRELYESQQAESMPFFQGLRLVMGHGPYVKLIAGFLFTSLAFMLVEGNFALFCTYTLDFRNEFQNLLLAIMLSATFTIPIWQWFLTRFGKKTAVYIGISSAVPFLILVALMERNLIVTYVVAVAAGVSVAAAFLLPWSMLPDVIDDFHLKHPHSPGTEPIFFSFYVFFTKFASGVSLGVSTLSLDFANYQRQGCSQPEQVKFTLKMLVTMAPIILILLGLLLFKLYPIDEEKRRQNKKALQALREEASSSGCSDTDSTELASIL
Description: Cell-based free fatty acid transport/uptake in Mfsd2a expressing HEK293 cells (mass spectrometry, TLC; Table 1). As to conditions: replicate columns; for Amount of each lipid species, mol percent in total phospholipid analysed: Mfsd2a expressing HEK293 cells incubated with 100 uM Arachidonic fatty acid/BSA complex overnight; for Amount of lipid species, mol percent in total phospholipid analysed / Amount of each lipid species normalized to internal standard, mol percent in total phospholipid analysed: Mfsd2a expressing HEK293 cells. The method, then:
(§1) FIG. 12. […] Std: free [^14C]-DHA. b. TLC analysis of phospholipids and neutral lipids of HEK293 cells transfected with mouse Mfsd2a and mutants after overnight incubation with 100 μM [^14C]-oleate. TLC protocol used was described in Methods. PC: phosphatidylcholine, PE: phosphatidylethanolamine, TAG: triglyceride, CE: cholesteryl ester.
(§2) For tissue lipid analysis, brain, liver, and heart of female WT and KO mice with age of 7-8 weeks born to HET mothers, and brains from e18.5 embryos were collected and immediately frozen with liquid nitrogen until extraction. Lipid extraction was followed by chloroform/methanol method. For cell-based free fatty acid transport, lipids from HEK293 cells expressing mouse Mfsd2a and mock controls after overnight treatment with 100 μM docosahexaenoic, arachidonic, eicosapentaenoic, alpha-linolenic, linoleic, oleic, palmitic acids in BSA complex were extracted using HIP buffer (hexane:iso-propanol 3:2, per volume) and dried under N2 gas. Phospholipid species were measured by high performance liquid chromatography (HPLC) 1100 system (Agilent) coupled with an Triple Quadrupole/Ion Trap mass spectrometer (4000Qtrap, Applied Biosystem). Levels of individual phospholipid species were analyzed as described previously and quantified using spiked internal standards that includes PC-14:0/14:0, PE-14:0/14:0, PS-14:0/14:0 (Avanti Polar Lipids, Alabaster, Ala., USA), and dioctanoyl PI (Echelon Biosciences, Inc., Salt Lake City, Utah, USA).

The subject of experiment [2] is mouse Mfsd2a. Described as above. As to conditions: MS, replicate columns; for Amount of each lipid species, mol percent in total phospholipid analysed: mock HEK293 cells incubated with 100 uM Arachidonic fatty acid/BSA complex overnight; for Amount of each lipid species normalized to internal standard, mol percent in total phospholipid analysed / Amount of lipid species, mol percent in total phospholipid analysed: mock HEK293 cells; for Amount of lipid species, mol percent in total phospholipid analysed: 100 uM Oleic fatty acid/BSA complex overnight. The method, then:
as §1, §2

[3] abbreviates: 100 uM Alpha-linolenic fatty acid/BSA complex overnight.
The mark [4] stands for this setting: 100 uM Linoleic fatty acid/BSA complex overnight.
Where [5] appears, read: 100 uM Docosahexaenoic acid/BSA complex overnight, MS.
[6] abbreviates: 100 uM Eicosapentaenoic acid/BSA complex overnight, MS.
Setting [7] is: 100 uM Oleic fatty acid/BSA complex overnight, MS.
[8] abbreviates: 100 uM Docosahexaenoic acid/BSA complex overnight.
Setting [9] is: 100 uM Eicosapentaenoic acid/BSA complex overnight.

Turning to `CCCCCCCCCCCCCCCC(=O)OC[C@@H](O)COP(=O)([O-])OCC[N+](C)(C)C` [LysoPC16:0], the “Amount of each lipid species, mol percent in total phospholipid analysed” value was 0.02415 mol percent and 0.0241 mol percent and 0.02855 mol percent and 0.02172 mol percent in experiment [1] (MS); 0.02322 mol percent and 0.02517 mol percent and 0.02807 mol percent in experiment [2]. The “Amount of lipid species, mol percent in total phospholipid analysed” value is 0.02586 mol percent and 0.02533 mol percent and 0.02841 mol percent and 0.02293 mol percent in experiment [1] (setting [3]); 0.02176 mol percent and 0.01959 mol percent and 0.02134 mol percent and 0.02259 mol percent in experiment [1] (setting [4]); 0.01777 mol percent and 0.01495 mol percent and 0.01595 mol percent and 0.01964 mol percent in experiment [1] (setting [7]); 0.01539 mol percent and 0.01577 mol percent and 0.0163 mol percent in experiment [2]. Further, the “Amount of each lipid species normalized to internal standard, mol percent in total phospholipid analysed” value in experiment [1] (setting [5]) was 0.03726 mol percent and 0.03481 mol percent and 0.03081 mol percent and 0.02684 mol percent; in experiment [1] (setting [6]) it was 0.02694 mol percent and 0.02534 mol percent and 0.02456 mol percent and 0.02331 mol percent; in experiment [2] (setting [8]) it was 0.03115 mol percent and 0.02846 mol percent and 0.03055 mol percent; in experiment [2] (setting [9]), 0.02508 mol percent and 0.02349 mol percent and 0.02482 mol percent.

Turning to `CCCCCCCCCCCCCCCCOC[C@@H](O)COP(=O)([O-])OCC[N+](C)(C)C` [LysoPC16:0e], the “Amount of each lipid species, mol percent in total phospholipid analysed” value in experiment [1] (MS) is 0.008218 mol percent and 0.00827 mol percent and 0.009441 mol percent and 0.01026 mol percent; in experiment [2], 0.008219 mol percent and 0.01198 mol percent and 0.009457 mol percent. The “Amount of lipid species, mol percent in total phospholipid analysed” value in experiment [1] (setting [3]) is 0.004349 mol percent and 0.003802 mol percent and 0.005532 mol percent and 0.004823 mol percent; in experiment [1] (setting [4]) it was 0.004905 mol percent and 0.004227 mol percent and 0.005291 mol percent and 0.006453 mol percent; in experiment [1] (setting [7]) it was 0.002972 mol percent and 0.00261 mol percent and 0.002228 mol percent and 0.001403 mol percent; in experiment [2], 0.003153 mol percent and 0.001998 mol percent and 0.003294 mol percent. Moreover, the “Amount of each lipid species normalized to internal standard, mol percent in total phospholipid analysed” value in experiment [1] (setting [5]) is 0.005111 mol percent and 0.004575 mol percent and 0.004499 mol percent and 0.004664 mol percent; in experiment [1] (setting [6]) it was 0.005369 mol percent and 0.005332 mol percent and 0.003584 mol percent and 0.004376 mol percent; in experiment [2] (setting [8]), 0.005025 mol percent and 0.003881 mol percent and 0.00548 mol percent; in experiment [2] (setting [9]) it was 0.00417 mol percent and 0.00451 mol percent and 0.003651 mol percent.
